Counter-ions that a name gives are not always drawn.
Tests used:
[1] = tested on: Staphylococcus aureus MW2 delta-mecA (mecA-); experiment: IC50 (growth, competition assay); conditions: cefoxitin: subinhibitory
How it was run: (§1)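 Signals from DsRed (540/590) and GFP (485/520) were scaled on every plate between single-strain control medians, with No Treatment then set to 0.5. The cells were a 1:1 mix of pre-induced fluorescent S. aureus MW2 strains with and without the resistance gene, grown unshaken for 20 h at 37 °C and 90% humidity in LB in 1536-well plates under a subinhibitory drug dose set each day. Each strain's IC50 was defined as the dose halving the No Treatment signal, or the maximal signal.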

[2] = tested on: Staphylococcus aureus MW2 (mecA+); experiment: IC50 (growth, competition assay); conditions: cefoxitin: subinhibitory
How it was run: as §1

CN(C)c1ccc(O)c2c1C[C@H]1C[C@H]3[C@H](N(C)C)C(O)=C(C(N)=O)C(=O)[C@@]3(O)C(O)=C1C2=O [Minocycline hydrochloride]
IC50 ([1]; fluorescent label: DsRed): < 9.85 µM
IC50 ([1]; fluorescent label: GFP): < 9.85 µM
IC50 ([2]; fluorescent label: DsRed): < 9.85 µM
IC50 ([2]; fluorescent label: GFP): < 9.85 µM

Cc1cc(Nc2nc(N[C@@H](C)c3ccc(F)cc3)c(C#N)cc2F)n[nH]1 [AZ 960]
IC50 ([1]; fluorescent label: DsRed): 2.4 µM
IC50 ([1]; fluorescent label: GFP): 1.67 µM
IC50 ([2]; fluorescent label: DsRed): 110 µM
IC50 ([2]; fluorescent label: GFP): 112 µM

COc1ccc(CCN2CCC(Nc3nc4ccccc4n3Cc3ccc(F)cc3)CC2)cc1 [HISMANAL]
IC50 ([1]; fluorescent label: DsRed): 45.1 µM
IC50 ([1]; fluorescent label: GFP): 20.2 µM
IC50 ([2]; fluorescent label: DsRed): 80.2 µM
IC50 ([2]; fluorescent label: GFP): 106 µM

CC(=O)NC[C@H]1CN(c2ccc(N3CCOCC3)c(F)c2)C(=O)O1 [ZYVOX]
IC50 ([1]; fluorescent label: DsRed): < 9.85 µM
IC50 ([1]; fluorescent label: GFP): < 9.85 µM
IC50 ([2]; fluorescent label: DsRed): < 9.85 µM
IC50 ([2]; fluorescent label: GFP): < 9.85 µM

CCn1cnc2c(Nc3cccc(Cl)c3)nc(N[C@@H]3CCCC[C@@H]3N)nc21
IC50 ([1]; fluorescent label: DsRed): 15.2 µM
IC50 ([1]; fluorescent label: GFP): 17 µM
IC50 ([2]; fluorescent label: DsRed): 65.8 µM
IC50 ([2]; fluorescent label: GFP): 78.3 µM

Cc1cc(N)c2ccccc2[n+]1CCCCCCCCCC[n+]1c(C)cc(N)c2ccccc21 [Dequalinium chloride hydrate]
IC50 ([1]; fluorescent label: DsRed): < 9.85 µM
IC50 ([1]; fluorescent label: GFP): < 9.85 µM
IC50 ([2]; fluorescent label: DsRed): < 9.85 µM
IC50 ([2]; fluorescent label: GFP): < 9.85 µM

CN(C)[C@@H]1C(O)=C(C(N)=O)C(=O)[C@@]2(O)C(O)=C3C(=O)c4c(O)ccc(Cl)c4[C@@H](O)[C@H]3C[C@@H]12 [DECLOMYCIN]
IC50 ([1]; fluorescent label: DsRed): < 9.85 µM
IC50 ([1]; fluorescent label: GFP): < 9.85 µM
IC50 ([2]; fluorescent label: DsRed): < 9.85 µM
IC50 ([2]; fluorescent label: GFP): < 9.85 µM

CC[C@H]1OC(=O)C[C@@H](O)[C@H](C)[C@@H](O[C@@H]2O[C@H](C)[C@@H](O[C@H]3C[C@@](C)(O)[C@@H](O)[C@H](C)O3)[C@H](N(C)C)[C@H]2O)[C@@H](CC=O)C[C@@H](C)C(=O)/C=C/C(C)=C/[C@@H]1CO[C@@H]1O[C@H](C)[C@@H](O)[C@@H](OC)[C@H]1OC [Tylosin tartrate]
IC50 ([1]; fluorescent label: DsRed): < 9.85 µM
IC50 ([1]; fluorescent label: GFP): < 9.85 µM
IC50 ([2]; fluorescent label: DsRed): < 9.85 µM
IC50 ([2]; fluorescent label: GFP): < 9.85 µM

CC[C@H]1OC(=O)[C@H](C)[C@@H](O[C@H]2C[C@@](C)(OC)[C@@H](O)[C@H](C)O2)[C@H](C)[C@@H](O[C@@H]2O[C@H](C)C[C@H](N(C)C)[C@H]2O)[C@](C)(O)C[C@@H](C)/C(=N\OCOCCOC)[C@H](C)[C@@H](O)[C@]1(C)O [Roxithromycin (Roxl-150)]
IC50 ([1]; fluorescent label: DsRed): < 0.498 µM
IC50 ([1]; fluorescent label: GFP): < 0.498 µM
IC50 ([2]; fluorescent label: DsRed): 4.26 µM
IC50 ([2]; fluorescent label: GFP): 3.99 µM

Cc1sc2c(c1C)C(c1ccc(Cl)cc1)=N[C@@H](CC(=O)OC(C)(C)C)c1nnc(C)n1-2 [(+)-JQ1]
IC50 ([1]; fluorescent label: DsRed): 47 µM
IC50 ([1]; fluorescent label: GFP): 35.2 µM
IC50 ([2]; fluorescent label: DsRed): 96.8 µM
IC50 ([2]; fluorescent label: GFP): 112 µM

CCCCCCCCNC(C)C(O)c1ccc(SC(C)C)cc1 (stereo not drawn) [SULOCTIDIL]
IC50 ([1]; fluorescent label: DsRed): 17.3 µM
IC50 ([1]; fluorescent label: GFP): 24.4 µM
IC50 ([2]; fluorescent label: DsRed): 29.6 µM
IC50 ([2]; fluorescent label: GFP): 27.5 µM

O=C1OC(CN2CCOCC2)CN1/N=C/c1ccc([N+](=O)[O-])o1 (stereo not drawn) [FURALTADONE]
IC50 ([1]; fluorescent label: DsRed): 11.4 µM
IC50 ([1]; fluorescent label: GFP): 18.5 µM
IC50 ([2]; fluorescent label: DsRed): 17.8 µM
IC50 ([2]; fluorescent label: GFP): 15.1 µM

CC[C@@H](C(=O)O)[C@@H]1O[C@@H]([C@@H](C)[C@H](O)[C@H](C)C(=O)[C@H](CC)[C@H]2O[C@]3(C=C[C@@H](O)[C@]4(CC[C@@](C)([C@H]5CC[C@](O)(CC)[C@H](C)O5)O4)O3)[C@H](C)C[C@@H]2C)[C@@H](C)C[C@@H]1C [NARASIN]
IC50 ([1]; fluorescent label: DsRed): < 9.85 µM
IC50 ([1]; fluorescent label: GFP): < 9.85 µM
IC50 ([2]; fluorescent label: DsRed): < 9.85 µM
IC50 ([2]; fluorescent label: GFP): < 9.85 µM

CC(=O)Oc1ccc(Cl)c2cccnc12 [SILITAL]
IC50 ([1]; fluorescent label: DsRed): 15.6 µM
IC50 ([1]; fluorescent label: GFP): < 9.85 µM
IC50 ([2]; fluorescent label: DsRed): 17.2 µM
IC50 ([2]; fluorescent label: GFP): 29.8 µM

CC(C)(O)CC(=O)NCCn1ccc2ncnc(Nc3ccc(Oc4cccc(C(F)(F)F)c4)c(Cl)c3)c21 [TAK-285]
IC50 ([1]; fluorescent label: DsRed): < 9.85 µM
IC50 ([1]; fluorescent label: GFP): < 9.85 µM
IC50 ([2]; fluorescent label: DsRed): 26.6 µM
IC50 ([2]; fluorescent label: GFP): 28.3 µM

CCOC(=O)C1=C(C)NC(C)=C(C(=O)OC)C1c1cccc(Cl)c1Cl (stereo not drawn) [PLENDIL]
IC50 ([1]; fluorescent label: DsRed): < 9.85 µM
IC50 ([1]; fluorescent label: GFP): < 9.85 µM
IC50 ([2]; fluorescent label: DsRed): 29.9 µM
IC50 ([2]; fluorescent label: GFP): 30 µM

N[C@@H](C(=O)N[C@@H]1C(=O)N2C(C(=O)O)=C(Cl)CS[C@H]12)c1ccccc1 [Cefaclor (Ceclor)]
IC50 ([1]; fluorescent label: DsRed): < 0.498 µM
IC50 ([1]; fluorescent label: GFP): < 0.498 µM
IC50 ([2]; fluorescent label: DsRed): 7.22 µM
IC50 ([2]; fluorescent label: GFP): 7.26 µM

C[C@H]1[C@H](C)CC[C@]2(C(=O)O)CC[C@]3(C)C(=CC[C@@H]4[C@@]5(C)C[C@@H](O)[C@H](O)[C@@](C)(CO)[C@@H]5[C@H](O)C[C@]43C)[C@H]12 [MADECASSIC ACID]
IC50 ([1]; fluorescent label: DsRed): 47.8 µM
IC50 ([1]; fluorescent label: GFP): 30 µM
IC50 ([2]; fluorescent label: DsRed): 53.8 µM
IC50 ([2]; fluorescent label: GFP): 54.5 µM

Cc1ccc(Sc2ccccc2N2CCNCC2)c(C)c1
IC50 ([1]; fluorescent label: DsRed): < 9.85 µM
IC50 ([1]; fluorescent label: GFP): 14.3 µM
IC50 ([2]; fluorescent label: DsRed): 43.5 µM
IC50 ([2]; fluorescent label: GFP): 54.2 µM

CN[C@H](CC(C)C)C(=O)N[C@H]1C(=O)N[C@@H](CC(N)=O)C(=O)N[C@H]2C(=O)N[C@H]3C(=O)N[C@H](C(=O)N[C@H](C(=O)O)c4cc(O)cc(O)c4-c4cc3ccc4O)[C@H](O)c3ccc(c(Cl)c3)Oc3cc2cc(c3O[C@@H]2O[C@H](CO)[C@@H](O)[C@H](O)[C@H]2O[C@H]2C[C@](C)(N)[C@H](O)[C@H](C)O2)Oc2ccc(cc2Cl)[C@H]1O [VANCOCIN]
IC50 ([1]; fluorescent label: DsRed): < 9.85 µM
IC50 ([1]; fluorescent label: GFP): < 9.85 µM
IC50 ([2]; fluorescent label: DsRed): < 9.85 µM
IC50 ([2]; fluorescent label: GFP): < 9.85 µM

COc1ccc(Cc2cnc(N)nc2N)cc1OC [DIAVERIDINE]
IC50 ([1]; fluorescent label: DsRed): 27.4 µM
IC50 ([1]; fluorescent label: GFP): 26.7 µM
IC50 ([2]; fluorescent label: DsRed): 57.3 µM
IC50 ([2]; fluorescent label: GFP): 29.9 µM

O=C1NC(c2cccc([N+](=O)[O-])c2)=CCN1c1ccccc1O [Icilin]
IC50 ([1]; fluorescent label: DsRed): 19.3 µM
IC50 ([1]; fluorescent label: GFP): 25.5 µM
IC50 ([2]; fluorescent label: DsRed): 63.3 µM
IC50 ([2]; fluorescent label: GFP): 54.4 µM

CC(C)(c1ccc(O)cc1)c1ccc(O)cc1 [BISPHENOL A]
IC50 ([1]; fluorescent label: DsRed): < 9.85 µM
IC50 ([1]; fluorescent label: GFP): < 9.85 µM
IC50 ([2]; fluorescent label: DsRed): 42.4 µM
IC50 ([2]; fluorescent label: GFP): 64.7 µM

COC(=O)C1=C(C)NC(C)=C(C(=O)OCC(C)C)C1c1ccccc1[N+](=O)[O-] (stereo not drawn) [SULAR]
IC50 ([1]; fluorescent label: DsRed): 78 µM
IC50 ([1]; fluorescent label: GFP): 51.8 µM
IC50 ([2]; fluorescent label: DsRed): > 150 µM
IC50 ([2]; fluorescent label: GFP): > 150 µM

Clc1ccc(COC(Cn2ccnc2)c2ccc(Cl)cc2Cl)c(Cl)c1 (stereo not drawn) [MONISTAT]
IC50 ([1]; fluorescent label: DsRed): < 9.85 µM
IC50 ([1]; fluorescent label: GFP): < 9.85 µM
IC50 ([2]; fluorescent label: DsRed): < 9.85 µM
IC50 ([2]; fluorescent label: GFP): < 9.85 µM

CO/N=C(\C(=O)N[C@@H]1C(=O)N2C(C(=O)O)=C(CSc3nc(=O)c(O)nn3C)CS[C@H]12)c1csc(N)n1 [Ceftriaxone sodium]
IC50 ([1]; fluorescent label: DsRed): < 9.85 µM
IC50 ([1]; fluorescent label: GFP): < 9.85 µM
IC50 ([2]; fluorescent label: DsRed): 14.9 µM
IC50 ([2]; fluorescent label: GFP): 14.9 µM

COC1=C2C[C@@H](C)C[C@H](OC)[C@H](O)[C@@H](C)/C=C(\C)[C@H](OC(N)=O)[C@@H](OC)/C=C\C=C(/C)C(=O)NC(=CC1=O)C2=O [Geldanamycin]
IC50 ([1]; fluorescent label: DsRed): < 9.85 µM
IC50 ([1]; fluorescent label: GFP): < 9.85 µM
IC50 ([2]; fluorescent label: DsRed): < 9.85 µM
IC50 ([2]; fluorescent label: GFP): < 9.85 µM

From the supplement of paper PMC7695840
